Laboratory results: the supplement of paper PMC10307832

Assays:
Test in all cases: relative viability (nuclei count vs DMSO), 5 days (fraction); higher = more cells survive
Idelalisib + Bortezomib = compound: CC[C@H](Nc1ncnc2[nH]cnc12)c1nc2cccc(F)c2c(=O)n1-c1ccccc1 [Idelalisib] + CC(C)C[C@H](NC(=O)[C@H](Cc1ccccc1)NC(=O)c1cnccn1)B(O)O [Bortezomib] (partner 0.002 µM)
Summary of the method: (§1)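 Nuclei were stained with Hoechst during a one-step fixation (final 0.05% Triton X-100, 1% formaldehyde, 1 ug/ml Hoechst) carried out 5 days after dosing, then counted on 4× images. The cells, lung cancer lines in 1536-well plates, had been dosed by pin tool the day after seeding with one drug alone or a fixed anchor-drug dose plus five library-drug doses (not always all listed) in √10 steps. Relative viability is the nuclei count in treated wells divided by that in vehicle wells, and each value is the median of duplicate plates.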

Pemetrexed + AZD7762 = compound: Nc1nc2[nH]cc(CCc3ccc(C(=O)N[C@@H](CCC(=O)O)C(=O)O)cc3)c2c(=O)[nH]1 [Pemetrexed] + NC(=O)Nc1cc(-c2cccc(F)c2)sc1C(=O)N[C@H]1CCCNC1 [AZD7762] (partner 0.2 µM)
Summary of the method: as §1

Idelalisib + Tozasertib = compound: CC[C@H](Nc1ncnc2[nH]cnc12)c1nc2cccc(F)c2c(=O)n1-c1ccccc1 [Idelalisib] + Cc1cc(Nc2cc(N3CCN(C)CC3)nc(Sc3ccc(NC(=O)C4CC4)cc3)n2)n[nH]1 [Tozasertib] (partner 0.1 µM)
Summary of the method: as §1

Idelalisib + Luminespib = compound: CC[C@H](Nc1ncnc2[nH]cnc12)c1nc2cccc(F)c2c(=O)n1-c1ccccc1 [Idelalisib] + CCNC(=O)c1noc(-c2cc(C(C)C)c(O)cc2O)c1-c1ccc(CN2CCOCC2)cc1 [Luminespib] (partner 0.01 µM)
Summary of the method: as §1

Row | Cell Line | relative viability (Idelalisib + Bortezomib; first compound 0.04 µM) | relative viability (Idelalisib + Bortezomib; first compound 0.1265 µM) | relative viability (Idelalisib + Bortezomib; first compound 0.4 µM) | relative viability (Idelalisib + Bortezomib; first compound 1.265 µM) | relative viability (Idelalisib + Bortezomib; first compound 4 µM) | relative viability (Pemetrexed + AZD7762; first compound 0.002 µM) | relative viability (Pemetrexed + AZD7762; first compound 0.006325 µM) | relative viability (Pemetrexed + AZD7762; first compound 0.02 µM) | relative viability (Pemetrexed + AZD7762; first compound 0.06325 µM) | relative viability (Pemetrexed + AZD7762; first compound 0.2 µM) | relative viability (Idelalisib + Tozasertib; first compound 0.04 µM) | relative viability (Idelalisib + Tozasertib; first compound 0.1265 µM) | relative viability (Idelalisib + Tozasertib; first compound 0.4 µM) | relative viability (Idelalisib + Tozasertib; first compound 1.265 µM) | relative viability (Idelalisib + Tozasertib; first compound 4 µM) | relative viability (Idelalisib + Luminespib; first compound 0.04 µM) | relative viability (Idelalisib + Luminespib; first compound 0.1265 µM) | relative viability (Idelalisib + Luminespib; first compound 0.4 µM) | relative viability (Idelalisib + Luminespib; first compound 1.265 µM) | relative viability (Idelalisib + Luminespib; first compound 4 µM)
1 | LOU-NH91 | 0.483 | 0.39 | 0.512 | 0.437 | 0.472 | 0.678 | 0.738 | 0.715 | 0.44 | 0.394 | 0.749 | 0.641 | 0.651 | 0.557 | 0.708 | 0.281 | 0.321 | 0.327 | 0.33 | 0.315
2 | NCI-H1651 | 1 | 0.913 | 0.939 | 1.01 | 1.02 | 0.412 | 0.452 | 0.51 | 0.44 | 0.455 | 0.673 | 0.623 | 0.615 | 0.593 | 0.605 | 0.789 | 1 | 0.832 | 0.809 | 0.605
3 | EKVX | 1.1 | 0.986 | 1.01 | 0.87 | 0.808 | 0.589 | 0.645 | 0.636 | 0.549 | 0.654 | 0.411 | 0.419 | 0.336 | 0.342 | 0.317 | 0.703 | 0.916 | 0.723 | 0.804 | 0.814
4 | NCI-H1993 | 1.14 | 1.22 | 0.852 | 0.976 | 0.771 | 0.546 | 0.825 | 0.779 | 0.563 | 0.481 | 0.628 | 0.54 | 0.519 | 0.583 | 0.574 | 0.778 | 0.889 | 0.779 | 1.06 | 0.822
5 | NCI-H23 | 1.05 | 0.986 | 0.771 | 1.07 | 0.959 | 0.253 | 0.231 | 0.232 | 0.235 | 0.245 | 0.39 | 0.528 | 0.363 | – | 0.334 | 0.219 | 0.221 | – | – | 0.196
6 | HCC-827 | 1.1 | 0.99 | 1.03 | 1.17 | 1.07 | 0.192 | 0.276 | 0.26 | 0.183 | 0.164 | 0.457 | 0.447 | 0.389 | 0.453 | 0.398 | 1.18 | 0.545 | 0.478 | 0.249 | 0.374
7 | PC-3 [JPC-3] | 0.885 | 0.837 | 0.835 | 0.806 | 0.809 | 0.448 | 0.968 | 1 | 0.808 | 0.861 | 0.966 | 0.913 | 0.853 | 0.901 | 0.715 | 0.487 | 0.65 | 0.69 | 0.65 | 0.497
8 | NCI-H1355 | 1.26 | 1.29 | 0.987 | 1.23 | 1.17 | 0.732 | 0.838 | 0.771 | 0.794 | 0.808 | 0.534 | 0.611 | 0.442 | 0.488 | 0.386 | 0.672 | 0.779 | 0.531 | 0.628 | 0.602
9 | NCI-H727 | 0.848 | 1.21 | 0.632 | 1.22 | 0.791 | 0.773 | 0.573 | 0.763 | 0.523 | 0.653 | 0.669 | 0.533 | 0.713 | 0.652 | 0.559 | 0.327 | 0.345 | – | 0.333 | 0.451
10 | NCI-H1975 | 0.34 | 0.374 | 0.385 | 0.371 | 0.343 | – | 0.819 | 0.818 | 0.583 | 0.35 | 0.7 | 0.794 | 0.671 | 0.718 | 0.565 | 0.216 | 0.157 | 0.16 | 0.213 | 0.207
11 | NCI-H460 | 0.782 | 1.03 | 1.1 | 1.23 | 1.04 | 0.589 | 0.707 | 0.657 | 0.194 | 0.0726 | 0.626 | 0.397 | 0.436 | 0.447 | 0.255 | 0.0345 | 0.032 | 0.0291 | 0.0326 | 0.0297
12 | EPLC-272H | 0.904 | 0.858 | 1.05 | 0.935 | 0.851 | 0.117 | 0.206 | 0.259 | 0.176 | 0.169 | 0.212 | 0.227 | 0.242 | 0.212 | 0.222 | 0.521 | 0.291 | 0.309 | 0.265 | 0.325
13 | NCI-H322M | 1.13 | 1.34 | 1.08 | 1.16 | 1.29 | 0.709 | 0.634 | 0.565 | 0.637 | 0.557 | 0.516 | 0.532 | 0.466 | 0.44 | 0.453 | 0.955 | 0.919 | 0.719 | 0.847 | 0.683
14 | NCI-H2405 | 1.05 | 0.98 | 0.937 | 0.983 | 0.962 | 0.781 | 0.833 | 0.843 | 0.689 | 0.629 | 0.841 | 0.864 | 0.671 | 0.762 | 0.672 | 0.777 | 0.621 | 0.473 | 0.52 | 0.442
15 | NCI-H1666 | 1.02 | 0.866 | 0.742 | 0.849 | 0.779 | 0.79 | 0.843 | 0.835 | 0.72 | 0.456 | 0.662 | 0.594 | 0.78 | 0.639 | 0.57 | 1.09 | 1.13 | 1.06 | 1.01 | 1.04
16 | H3255 | 0.882 | 0.888 | 0.807 | 0.807 | 0.829 | 0.798 | 0.916 | 0.928 | 0.79 | 0.571 | 0.646 | 0.852 | 0.583 | 0.568 | 0.544 | 1.13 | 0.786 | 0.78 | 0.882 | 0.878
17 | LCLC-103H | 1.07 | 1.24 | 1.04 | 1.04 | 0.911 | 0.642 | 0.774 | 0.792 | 0.775 | 0.695 | 0.505 | 0.48 | 0.425 | 0.472 | 0.308 | 0.998 | 0.731 | 0.757 | 0.933 | 0.794
18 | NCI-H2347 | 0.971 | 0.982 | 0.971 | 0.774 | 0.799 | 0.61 | 0.831 | 0.914 | 0.517 | 0.428 | 0.591 | 0.517 | 0.408 | 0.443 | 0.441 | 0.506 | 0.581 | 0.448 | 0.362 | 0.532
19 | HCC-15 | 0.998 | 1.11 | 0.899 | 1.1 | 1.02 | 1.11 | 1.13 | 1.48 | 0.903 | 0.448 | 0.556 | 0.419 | 0.356 | 0.384 | 0.31 | 0.185 | 0.242 | 0.286 | 0.26 | 0.404
20 | NCI-H838 | 0.835 | 0.95 | 0.476 | 1.03 | 0.635 | 0.934 | 0.862 | 0.757 | 0.635 | 0.579 | 0.268 | 0.288 | 0.282 | 0.258 | 0.257 | 0.235 | 0.346 | 0.273 | 0.339 | 0.243
21 | RERF-LC-KJ | 1.2 | 1.08 | 0.95 | 1.13 | 0.878 | 0.837 | 1.49 | 0.919 | 1.04 | 0.618 | 0.539 | 0.502 | 0.47 | 0.474 | 0.449 | 1.31 | 1.33 | 1.12 | 1.19 | 1.07
22 | ChaGo-K-1 | 1.09 | 0.945 | 1.01 | 1.04 | 1.17 | 0.902 | 0.803 | 0.834 | 0.27 | 0.238 | 0.244 | 0.227 | 0.197 | 0.212 | 0.187 | 0.558 | 0.632 | 0.516 | 0.523 | 0.537
23 | NCI-H441 | 0.406 | 0.453 | – | 0.608 | 0.37 | 1.12 | 1.1 | 1.11 | 1.03 | 0.291 | 0.725 | 0.685 | 0.728 | 0.536 | 0.591 | 0.365 | 0.354 | 0.308 | 0.308 | 0.316
24 | PC-14 | 0.913 | 0.996 | 0.947 | 0.982 | 0.814 | 0.297 | 0.371 | 0.35 | 0.218 | 0.114 | 0.638 | 0.603 | 0.557 | 0.6 | 0.553 | 0.158 | 0.136 | 0.127 | 0.154 | 0.123
25 | NCI-H1437 | 0.567 | 0.532 | 0.452 | 0.833 | 0.37 | 1.03 | 1.1 | 1.06 | 0.323 | 0.231 | 0.333 | 0.43 | 0.411 | 0.384 | 0.397 | 1.11 | 1.15 | 1.05 | 1.22 | 1.18
26 | NCI-H647 | 0.998 | 1.13 | 0.813 | 0.905 | 0.737 | 0.488 | 0.626 | 0.435 | 0.333 | 0.143 | 0.313 | 0.394 | – | 0.0094 | 0.109 | 0.171 | 0.141 | – | 0.241 | 0.121
27 | NCI-H2087 | 0.765 | 1.01 | 0.787 | 1.07 | 0.671 | 1.2 | 1.22 | 1.44 | 1.3 | 0.799 | 0.249 | 0.272 | 0.212 | 0.216 | 0.235 | 0.198 | 0.213 | 0.16 | 0.165 | 0.115
